Entries after “also recorded” stand apart in the source; their conditions may differ.
Assays:
[1] = TUNEL assay of kidney sections; type: in vivo, mice; details: FIGS. 8A and 8B
Source text: The tumor and kidney were fixed with 4% paraformaldehyde and embedded in paraffin, which was further cut into […] sections. To evaluate cellular apoptosis in kidney, a kidney section was stained using a TUNEL assay kit-HRP-DAB (ab206386; abcam, Cambridge, UK) according to the manufacturer's protocols.

[2] = Biosafety: body weight and blood biochemical analysis; type: in vivo, mice
Protocol: After centrifugation at 4° C. for 20 min, the plasma was collected for blood biochemical analysis. The concentrations of AST, ALT, BUN, and creatinine were analyzed at DKKorea (Seoul, Korea).

U87MG tumor xenograft = experiment: Xenograft tumor model, anti-tumor effect in vivo; design: species or system BALB/c nude mice; details: for weight of mice: xenograft tumor models (U87MG and U87MG-shSPARC), FIG. 5C, 5D, 3 mg/kg IV 7 times
Protocol: BALB/c nude mice (5-week-old, male) were purchased from Orient Bio Inc. (Seongnam, Korea). U87MG or U87MG-shSPARC cells (2×10^6 cells/site) were injected subcutaneously into the right lower flanks.
(§1) The tumor size and body weight of each mouse were recorded every other day. Tumor volume was calculated using the equation V=0.5×L×W^2, where L represents tumor length and W represents tumor width.

U87MG cells = experiment: Cellular cytotoxicity, Cell Counting Kit-8 (CCK-8) assay; type: cell-based, Human; details: 72 h
Protocol: (§2) Human glioma cells (U87MG) were obtained from American Type Culture Collection (ATCC; Manassas, VA, USA). Low SPARC-expressing U87MG cells, U87MG-shSPARC, were established from a previous study.
(§3) (1) U87MG and U87MG-shSPARC cells were added to 96-well plates (4000 cells/well). […] Cell viability was analyzed using a Cell Counting Kit-8 (CCK-8, Dojindo Molecular Technologies, Tokyo, Japan) assay according to the manufacturer's protocols.
(2) To execute cellular cytotoxicity experiments of HSA bound with CDDPs in different numbers, U87MG cells were added to a 96-well plate (4000 cells/well) and incubated overnight. […] Cell viability was analyzed using a Cell Counting Kit-8 (CCK-8, Dojindo Molecular Technologies, Tokyo, Japan) assay according to the manufacturer's protocols.

[3] = test system: U87MG-shSPARC tumor xenograft; experiment: Xenograft tumor model, anti-tumor effect in vivo; design: species or system BALB/c nude mice
Protocol: All animal studies were performed under approval from the Seoul National University Institutional Animal Care and Use Committee (IACUC No. 18-0231, 1 Nov. 2018). BALB/c nude mice (5-week-old, male) were purchased from Orient Bio Inc. (Seongnam, Korea). U87MG or U87MG-shSPARC cells (2×10^6 cells/site) were injected subcutaneously into the right lower flanks.
as §1

[4] = Histopathology examination, H&E staining; type: in vivo; details: drug-treated mice, FIG. 7B
Source text: The kidney, liver, and spleen of the drug-treated mice were acquired and fixed with 4% paraformaldehyde. Tissues were embedded in paraffin and stained with hematoxylin and eosin (H&E). H&E staining images were acquired using an optical microscope (Olympus BX43, Tokyo, Japan).

U87MG tumors = experiment: Tumor CDDP accumulation using ICP-MS; type: in vivo, mice; details: 72 h after last of 7 IV doses, FIG. 6B
Protocol: For tumor CDDP distribution, U87MG or U87MG-shSPARC cells (2×10^6 cells/site) were injected subcutaneously into the right lower flanks. […] At 72 h after the last IV administration (15 days after first administration), mice were euthanized, and the tumor was acquired.
All samples (organs, blood, and tumors) were lyophilized and we analyzed the amount of CDDP using the ICP-MS (NexION 350; Perkin-Elmer, Waltham, MA, USA) installed at the National Center for Inter-university Research Facilities (NCIRF) at Seoul National University.

U87MG-shSPARC cells = experiment: Cellular cytotoxicity, Cell Counting Kit-8 (CCK-8) assay; type: cell-based, Human; details: 72 h, CCK-8, n=5, Table 1
Protocol: as §2, §3

Compound: N.N.[Cl][Pt][Cl] [CDDP, cis-diamine dichloroplatinum (II)]
- TUNEL positive cells in kidney [1]: TUNEL positive cells were only identified in the kidney of CDDP-treated mice
- body weight ([2]; 72 h after final treatment (every other day, seven times), FIG. 7A): significant body weight loss compared to the PBS and HSA-CDDP groups
- blood urea nitrogen (BUN) ([2]; kidney function, 72 h after final treatment): increased
- survival rate (U87MG tumor xenograft; U87MG tumor model vs PBS group, FIG. 5E): prolonged survival time than the PBS group
- tumor growth (U87MG tumor xenograft; U87MG tumor model, 12 days after first drug treatment, 3 mg/kg CDDP equivalent IV every other day 7 times, p<0.001): significantly reduced tumor growth than the PBS group
- Median survival (U87MG tumor xenograft; U87MG tumor xenograft model, 3 mg/kg CDDP equivalent IV 7 times): 22 days
- weight of mice (U87MG tumor xenograft): significantly decreased
- weight of mice (U87MG tumor xenograft; listed as CCDP): significant weight loss compared to the group treated with PBS
- IC50 (U87MG cells; CCK-8, n=5, Table 1): 2.54 ± 0.135 µM
- IC50 (U87MG cells; CCK-8, n=6, Table 2 (CDDP number-dependent HSA)): 4.72 ± 0.11 µM
- survival rate ([3]; U87MG-shSPARC tumor model vs PBS group, FIG. 5F): prolonged survival
- tumor growth ([3]; U87MG-shSPARC tumor model, 26 days after first drug treatment, 3 mg/kg CDDP equivalent IV every other day 7 times): significantly reduced tumor growth than the PBS group
- Median survival ([3]; U87MG-shSPARC tumor xenograft model, 3 mg/kg CDDP equivalent IV 7 times): 42 days
- H&E staining of kidney tissue [4]: tubular degeneration; also recorded: extensive epithelial vacuolization; also recorded: degeneration of renal tubules; also recorded: vacuolation of epithelial cells
- accumulation of CDDP, U87MG vs U87MG-shSPARC tumors (U87MG tumors): no difference in CDDP accumulation between U87MG and U87MG-shSPARC
- IC50 (U87MG-shSPARC cells): 2.65 ± 0.13 µM

Source: patent US20240148836A1, “COMPOSITION FOR TREATING CANCER EXPRESSING SPARC” (SEOUL NATIONAL UNIVERSITY R&DB FOUNDATION, priority 2021, published 2024)
